For one series, the system named is MDA-MB-231 cells. Put plainly: MTS cell viability assay, MDA-MB-231. The settings on record: Homo sapiens, breast cancer cell line, 48 h exposure, read-out: IC50 ± SD, MDA-MB-231. It is filed as cell-based. An excerpt:
(§1) Our research group is extensively involved in studying the role of vacuolar (H^+)-ATPase in breast as well as ovarian cancer cell lines. We examined the antiproliferative activity of the novel bisbenzimidazole derivatives (2a–e) in selected human breast cancer cell lines, MDA-MB-231 (ATCC, HTB-26), MDA-MB-468 (ATCC, HTB-132), MCF-7 (ATCC, HTB-22), and the normal breast epithelial cell line, MCF10A. We also used the cisplatin-sensitive A2780, PA-1 (ATCC, CRL 1572), and the cisplatin-resistant Cis-A2780 ovarian cancer cell lines. A potent V-ATPase inhibitor, Bafilomycin A1 (Baf A1), was used as the positive control. We employed the CellTiter 96 AQueous One solution cell proliferation assay (MTS; Promega) to measure the in vitro cell viability of the cells.
(§2) We studied the antiproliferative activity of an initial hit (compound V), and bisbenzimidazole analogs 2a–e in the selected human breast cancer cell lines MDA-MB-231 (ATCC, HTB-26), MDA-MB-468 (ATCC, HTB-132), MCF-7 (ATCC, HTB-22) and the normal breast epithelial cell line, MCF10A, and the ovarian cancer cell lines, A2780, Cis-A2780, and PA-1 (ATCC, CRL 1572). Human breast cancer cell lines and the human ovarian cancer cell line (PA-1) were purchased from ATCC (American Type Culture Collection, Manassas, VA, USA). The cisplatin-sensitive human ovarian carcinoma cell line, A2780, was obtained from Sigma-Aldrich. The cisplatin-resistant human ovarian cell line, Cis-A2780, was produced in our laboratory, as described in the literature. MDA-MB-231, MDA-MB-468, MCF7, and PA-1 were cultured in the MEM medium (Gibco—Life Technologies, Carlsbad, CA, USA). For the MCF-7 cell line, a final concentration of 0.01 mg/mL human recombinant insulin was added to the media. The normal breast epithelial cell line, MCF-10A, was cultured in complete MEBM (Lonza/Clonetics, Walkersville, MD, USA), as recommended by ATCC. A2780, Cis-A2780 cell lines were cultured in RPMI 1640 medium (Invitrogen, Carlsbad, CA, USA). All media were supplemented with 10% (v/v) heat-inactivated fetal bovine serum (Biowest LLC, Riverside, MO, USA), 100 U/mL penicillin G and 100 U/mL streptomycin (Sigma Aldrich, St. Louis, MO, USA). Cultures were maintained at 37 °C in a humidified atmosphere containing 5% CO2 and were passaged by trypsinization after reaching 80–90% confluence.
(§3) CellTiter 96 AQueous One Solution cell proliferation assay (MTS) was used to measure the in vitro cell viability of cells, and the MTS purchased from Promega (Madison, WI, USA). Cells (5 × 10^3) were seeded into each well of 96-well plates and incubated overnight. Dimethyl Sulfoxide (DMSO) stock solutions of the compounds (V, 2a–e) were diluted in corresponding media and exposed to different concentrations for 48 h. All three independent experiments were performed in quadruplicates. Untreated cells were used as a negative control and data were presented as the mean ± standard deviation (S.D.). The absorbances at 492 nm were measured using a Microplate Reader (Synergy HT, Biotek Instruments, Winooski, VT, USA). The compound concentration that inhibited cell growth by 50% of the untreated control (IC50) was calculated from the dose response curves constructed by plotting percentages of cell viability versus drug concentrations using nonlinear regression analysis by GraphPad Prism Software 7 (GraphPad Software, San Diego, CA, USA).
Background: Tetrazolium assays rely on reduction of a dye to a coloured formazan, in cell work by metabolically active cells.

A further series concerns Cis-A2780 cells. Put plainly: MTS cell viability assay, Cis-A2780. It is filed as cell-based. Conditions: Homo sapiens, cisplatin-resistant ovarian cancer cell line, 48 h exposure, read-out: IC50 ± SD, Cis-A2780.
Source text: as §1, §2, §3

A further series has as its system V-ATPase. Put plainly: Proton pump activity, acridine orange fluorescence quenching in MDA-MB-231 cells. The class given is cell-based, human. The settings on record: 20 min incubation, relative to untreated control. The text has this:
Since our hit compound (V) has been identified by the literature known V-ATPases, we hypothesized that these newly synthesized bisbenzimidazole derivatives (2a–e) will work as proton pump inhibitors (PPIs). To neutralize the acidic microenvironment, PPIs have been used to target the V-ATPase pumps present on the cell membrane. […] Therefore, we selected efficacious anticancer agents for the proton pump activity. We performed the standard proton pump activity using the acridine orange (AO) fluorescence quenching method. We selected two highly efficacious compounds (2d and 2e) and our initial hit (V) for proton pump activity. Baf A1 is a known V-ATPase inhibitor and is used as a positive control. The proton pump activity of cells was measured as a decrease in the fluorescence intensity per min. The activity of cells in the presence of Baf A1 and the potent compounds (V, 2d, and 2e) was calculated as a percentage of the untreated control. The values represented are mean values of duplicate measurements (Figure 10).
The proton pump activity was assessed by using the AO fluorescence quenching method. Bafilomycin A1 (Baf A1), AO, and nigericin were purchased from Sigma-Aldrich. Hank’s Balanced Salt Solution (HBSS) was purchased from Gibco-Life Technologies (Carlsbad, CA, USA). Human breast cancer MDA-MB-231 (ATCC, HTB-26) cells were washed twice with Hank’s Balanced Salt Solution (HBSS). The cells were re-suspended at a density of 5 × 10^6 cells per mL in the same buffer and placed on ice. H^+ uptake was initiated by the addition of MDA-MB-231 cells (10 μL; […]) to pre-warmed HBSS (2.4 mL) containing AO (6 μL; 30 μM) and placed in a cuvette. AO fluorescence was measured at an excitation wavelength of 495 nm and an emission wavelength of 540 nm using the LS-50B Luminescence Spectrometer (Perkin Elmer, Software: FL WinLab, Version 4.00.03). Nigericin (6 μL; 6 μM) was added to collapse the pH gradient and unquench the AO fluorescence (See Supplementary Figure S1: 1a and 1b). […] A decrease in the fluorescence intensities per min of Baf A1 and the potent compounds (V, 2d, and 2e) was calculated and is expressed as a percentage of the control (mean ± SD of two independent experiments) (Figure 10).
Figure 10 Effect of V-ATPase inhibitors on proton pump activity. Cells (MDA-MB-231) were subjected to acridine orange (AO) fluorescence quenching assay in the presence and absence of Baf A1 (1 μM) and potent compounds (V, 2d, and 2e; 10 μM). Fluorescence intensity at an excitation of 495 nm and an emission of 540 nm was quantified. Decrease in fluorescence intensity per min was calculated as percentage relative to control (mean ± SD; n = 2).

A further series has as its system MCF10A cells. Put plainly: MTS cell viability assay, MCF10A normal breast epithelial cells. The class given is cell-based. Conditions: Homo sapiens, MCF-10A, normal breast epithelial cell line, 48 h exposure, read-out: IC50 ± SD, MCF10A.
Source text: as §1, §2, §3

The subject of another series is MDA-MB-468 cells. Description: MTS cell viability assay, MDA-MB-468. The class given is cell-based, human. Conditions: for IC50: Homo sapiens, MDA-MB-468, triple-negative breast cancer cell line, 48 h exposure, MTS, read-out: IC50 ± SD, MDA-MB-468.
Source text: as §1, §2, §3

The subject of the next series is A2780 cells. Description: MTS cell viability assay, A2780. It is filed as cell-based. Conditions: Homo sapiens, cisplatin-sensitive ovarian cancer cell line, 48 h exposure, read-out: IC50 ± SD, A2780.
Source text: as §1, §2, §3

In a further series the test system is MCF7 cells. Description: MTS cell viability assay, MCF7. It is filed as cell-based. The settings on record: Homo sapiens, breast cancer cell line, 48 h exposure, read-out: IC50 ± SD, MCF7.
Source text: as §1, §2, §3

Another series has as its system PA-1 cells. Description: MTS cell viability assay, PA-1. It is filed as cell-based. Conditions: Homo sapiens, cisplatin-sensitive ovarian cancer cell line, 48 h exposure, read-out: IC50 ± SD, PA-1.
Source text: as §1, §2, §3

The values that follow come from publication PMC6151825, “Identification of Novel Bisbenzimidazole Derivatives as Anticancer Vacuolar (H^+)-ATPase Inhibitors” (Molecules : A Journal of Synthetic Chemistry and Natural …, 2017).

A word on the IC50: it is the concentration at which inhibition is half-maximal. As usually defined, the melting point is the temperature, or range, at which the solid turns liquid.

Turning to `CO/C1=C\C(C)=C\[C@@H](C)[C@@H](O)[C@@H](C)C/C(C)=C/C=C/[C@H](OC)[C@@H]([C@@H](C)[C@@H](O)[C@H](C)[C@@]2(O)C[C@@H](O)[C@H](C)[C@@H](C(C)C)O2)OC1=O` [Baf A1, Bafilomycin A1, reference compound], the figures for the half-maximal inhibitory concentration (IC50) in the series on MDA-MB-231 cells, in the series on Cis-A2780 cells and in the series on MCF10A cells were 26 ± 20 nM, 8 ± 10 nM and 36 ± 40 nM, respectively. Further, the “inhibition of the H^+-ATPase activity” value with V-ATPase (1 μM) was 25%.
Consider `CN1CCC(Oc2ccc(-c3nc4ccc(-c5nc6ccc(N7CCN(C)CC7)cc6[nH]5)cc4[nH]3)cc2)CC1` [Compound 2a, 6-(4-Methylpiperazin-1-yl)-2'-(4-((1-methylpiperidin-4-yl)oxy)phenyl)-1H,3'H-2,5'-bibenzo[d]imidazole], for which the melting point lay in the range of 165 to 166 °C. Moreover, in the series with MDA-MB-468 cells, the IC50 stood at 13400 ± 330 nM. The IC50 in the series with MDA-MB-231 cells was 17600 ± 190 nM. In addition, the IC50 with Cis-A2780 cells was found to be 25200 ± 320 nM. For the same compound, the IC50 in the series on MCF10A cells stood at 13400 ± 370 nM. Also, the IC50 with A2780 cells came to 26500 ± 1440 nM. Besides, the IC50 in the series with MCF7 cells was 49300 ± 2760 nM.
Compound `CN(C)CCCOc1ccc(-c2nc3ccc(-c4nc5ccc(N6CCN(C)CC6)cc5[nH]4)cc3[nH]2)cc1` [Compound 2b, N,N-Dimethyl-3-(4-(6-(4-methylpiperazin-1-yl)-1H,3'H-[2,5'-bibenzo[d]imidazol]-2'-yl)phenoxy)propan-1-amine] yielded a melting point of 171 to 172 °C. Further, the IC50 with MDA-MB-468 cells is 5830 ± 230 nM. In addition, the IC50 in the series on MDA-MB-231 cells stood at 4770 ± 430 nM. Further, the IC50 with Cis-A2780 cells stood at 12340 ± 20 nM. Besides, in the series on MCF10A cells, the IC50 amounted to 2950 ± 150 nM. Besides, the IC50 in the series on PA-1 cells came out at 5830 ± 70 nM. The IC50 with A2780 cells is 11800 ± 10 nM. For the same compound, the IC50 with MCF7 cells is 13500 ± 2140 nM.
`CN(C)CCOc1ccc(-c2nc3ccc(-c4nc5ccc(N6CCN(C)CC6)cc5[nH]4)cc3[nH]2)cc1` [Compound 2c, N,N-Dimethyl-2-(4-(6-(4-methylpiperazin-1-yl)-1H,3'H-[2,5'-bibenzo[d]imidazol]-2'-yl)phenoxy)ethanamine] had a melting point of 197 to 198 °C. For the same compound, the IC50 in the series with MDA-MB-468 cells was 1170 ± 360 nM. The IC50 with MDA-MB-231 cells turned out to be 750 ± 300 nM. Further, the IC50 in the series on Cis-A2780 cells was 10700 ± 220 nM. In addition, the IC50 in the series on MCF10A cells is 810 ± 100 nM. In the series on PA-1 cells, the IC50 turned out to be 7780 ± 810 nM. Moreover, the IC50 in the series with A2780 cells turned out to be 12900 ± 420 nM.
For the compound `COCCOc1ccc(-c2nc3ccc(-c4nc5ccc(N6CCN(C)CC6)cc5[nH]4)cc3[nH]2)cc1` [Compound 2d, 2'-(4-(2-Methoxyethoxy)phenyl)-6-(4-methylpiperazin-1-yl)-1H,3'H-2,5'-bibenzo[d]imidazole], the melting point lay in the range of 208 to 209 °C. Further, the IC50 in the series with MDA-MB-468 cells amounted to 560 ± 50 nM. In the series on MDA-MB-231 cells, the 50% inhibitory concentration (IC50) was determined as 2440 ± 330 nM. The IC50 with Cis-A2780 cells was found to be 3030 ± 180 nM. In addition, the “inhibition of the H^+-ATPase activity” value in the series with V-ATPase (10 μM) came to 14%. Besides, the IC50 in the series with MCF10A cells came to 1550 ± 40 nM. Moreover, the IC50 in the series on PA-1 cells came to 3090 ± 30 nM. The concentration for half-maximal inhibition (IC50) in the series with A2780 cells came out at 1970 ± 190 nM. Further, the concentration for half-maximal inhibition (IC50) with MCF7 cells is 22000 ± 3900 nM.
The compound `CN1CCN(c2ccc3nc(-c4ccc5nc(-c6ccc(OCCC(C)(C)C)cc6)[nH]c5c4)[nH]c3c2)CC1` [Compound 2e, 2'-(4-(3,3-Dimethylbutoxy)phenyl)-6-(4-methylpiperazin-1-yl)-1H,3'H-2,5'-bibenzo[d]imidazole] gave a melting point of 247 to 248 °C. In addition, in the series with MDA-MB-468 cells, the IC50 was determined as 40 ± 20 nM. Further, in the series with MDA-MB-468 cells (ratio of IC50 in normal MCF10A cells to IC50 in MDA-MB-468 cells), the “times less toxic, MCF10A versus MDA-MB-468” value is roughly 40 times. The IC50 in the series with MDA-MB-231 cells is 1580 ± 50 nM. Further, in the series with Cis-A2780 cells, the IC50 turned out to be 1340 ± 140 nM. Besides, in the series on V-ATPase (10 μM), the “inhibition of the H^+-ATPase activity” value worked out at 42%. For the same compound, the IC50 with MCF10A cells was 1620 ± 140 nM. Further, the IC50 in the series on PA-1 cells was found to be 2870 ± 150 nM. In addition, the half-inhibitory concentration (IC50) in the series with A2780 cells is 2770 ± 50 nM. In addition, in the series with MCF7 cells, the IC50 was determined as 2020 ± 120 nM.
For the compound `CCOc1ccc(-c2nc3cc(-c4nc5cc(N6CCN(C)CC6)ccc5[nH]4)ccc3[nH]2)cc1` [Compound V], the IC50 is 720 ± 80 nM with MDA-MB-468 cells; 1020 ± 80 nM with MDA-MB-231 cells; 3950 ± 330 nM in the series on Cis-A2780 cells; 1140 ± 130 nM in the series on MCF10A cells; 1700 ± 210 nM with PA-1 cells; 3870 ± 90 nM in the series on A2780 cells. In addition, in the series with MCF7 cells, the 50% inhibitory concentration (IC50) is 9330 ± 690 nM. In addition, the “inhibition of the H^+-ATPase activity” value in the series on V-ATPase (10 μM) was determined as 30%.
